In patent publication US20210196671A1, “COMPOSITIONS COMPRISING 3'-O-METHYL-4'-O-SULFATE EPICATECHIN AND THERAPEUTIC USES OF SUCH COMPOSITIONS” (SOCIÉTÉ DES PRODUITS NESTLÉ S.A., priority 2016, published 2021):

Each compound was assayed against T1, h-TRPA1 (Homo sapiens, UniProt O75762) (assay: activation of CHO cells expressing h-TRPA1, calcium imaging). Conditions: concentration (max) tested 1 mM.
T1 construct: expressed in transfected cells; host or cells: CHO cells
Format: cell-based
Protocol: Several epicatechin metabolites were tested in vitro to determine if any of these compounds are an agonist of the cation channel of TRPA1. Specifically, the activation of CHO cells expressing h-TRPA1 was tested according to the calcium imaging method described in Riera et al. (Riera, C. E., Vogel, H., Simon, S. A., Damak, S., & le Coutre, J. Sensory attributes of complex tasting divalent salts are mediated by TRPM5 and TRPV1 channels. J. Neurosci. 29, 2654-2662 (2009)).

T1 sequence (O75762 whole entry): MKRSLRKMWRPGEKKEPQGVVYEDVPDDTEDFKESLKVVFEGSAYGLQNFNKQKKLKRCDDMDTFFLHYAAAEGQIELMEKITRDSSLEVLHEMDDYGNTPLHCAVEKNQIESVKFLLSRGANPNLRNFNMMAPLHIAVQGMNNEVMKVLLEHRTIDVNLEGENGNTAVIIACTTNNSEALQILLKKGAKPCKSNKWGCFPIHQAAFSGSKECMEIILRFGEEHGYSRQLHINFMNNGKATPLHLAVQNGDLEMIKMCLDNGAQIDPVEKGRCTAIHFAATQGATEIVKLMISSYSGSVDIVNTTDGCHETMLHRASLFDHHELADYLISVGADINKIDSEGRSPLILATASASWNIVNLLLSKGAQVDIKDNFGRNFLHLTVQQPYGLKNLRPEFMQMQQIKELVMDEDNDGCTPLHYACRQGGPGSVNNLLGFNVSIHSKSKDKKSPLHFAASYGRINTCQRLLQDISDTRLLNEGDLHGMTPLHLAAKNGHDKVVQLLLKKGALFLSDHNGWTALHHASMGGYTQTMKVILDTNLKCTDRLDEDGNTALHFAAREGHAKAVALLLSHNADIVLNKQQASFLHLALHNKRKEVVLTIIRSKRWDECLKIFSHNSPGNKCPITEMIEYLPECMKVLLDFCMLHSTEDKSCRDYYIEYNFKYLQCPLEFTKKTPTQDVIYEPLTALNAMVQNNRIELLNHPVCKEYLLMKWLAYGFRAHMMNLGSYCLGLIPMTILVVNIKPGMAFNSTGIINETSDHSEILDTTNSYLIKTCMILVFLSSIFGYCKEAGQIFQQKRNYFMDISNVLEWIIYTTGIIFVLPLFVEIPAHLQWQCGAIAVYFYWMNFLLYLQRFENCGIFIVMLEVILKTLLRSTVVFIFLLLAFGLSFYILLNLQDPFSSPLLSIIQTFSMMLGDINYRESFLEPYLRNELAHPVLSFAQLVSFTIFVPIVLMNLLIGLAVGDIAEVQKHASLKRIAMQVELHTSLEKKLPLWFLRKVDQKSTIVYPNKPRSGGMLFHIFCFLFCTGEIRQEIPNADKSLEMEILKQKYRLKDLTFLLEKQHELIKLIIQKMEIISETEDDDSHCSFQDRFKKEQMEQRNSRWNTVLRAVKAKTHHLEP

Compound	Activity vs hTRPA1
COc1cc([C@H]2Oc3cc(O)cc(O)c3C[C@H]2O)ccc1OS(=O)(=O)O [3′-O-methyl-4′-O-sulfate-EC, 3′-O-methyl-4′-O-sulfate epicatechin]	Active

Same assay, conditions: concentration (max) tested 3 mM

Compound	Activity vs hTRPA1
COc1ccc(C2CC(=O)c3c(O)cc(O)cc3O2)cc1O[C@@H]1O[C@H](C(=O)O)[C@@H](O)[C@H](O)[C@H]1O (stereo partly drawn) [Hesperetin-3-O-Glucuronide]	Inactive
Hesperetin-4-O-Glucuronide	Inactive
Hesperetin-7-3-O-Glucuronide	Inactive

Same assay, conditions: concentration (max) tested 100 mM

Compound	Activity vs hTRPA1
COc1cc([C@H]2Oc3cc(OS(=O)(=O)O)cc(O)c3C[C@H]2O)ccc1O [3′-O-methyl-7-O-sulfate-EC]	Inactive
COc1cc([C@H]2Oc3cc(O)cc(O)c3C[C@H]2O)ccc1O [3′-O-methyl-EC]	Inactive
O=S(=O)(O)Oc1cc([C@H]2Oc3cc(O)cc(O)c3C[C@H]2O)ccc1O [3′-O-sulfate-EC]	Inactive
COc1ccc([C@H]2Oc3cc(O)cc(O)c3C[C@H]2O)cc1O [4′-O-methyl-EC]	Inactive
O=S(=O)(O)Oc1ccc([C@H]2Oc3cc(O)cc(O)c3C[C@H]2O)cc1O [4′-O-sulfate-EC]	Inactive
